Results from the supplement of paper PMC6045584.
± gives the standard deviation of the averaged measurements.

What was measured:
SORAFENIB = compound: CNC(=O)c1cc(Oc2ccc(NC(=O)Nc3ccc(Cl)c(C(F)(F)F)c3)cc2)ccn1 [SORAFENIB]; assay: surviving fraction relative to DMSO-only wells; higher = less growth inhibition; conditions: exposure time: 5 days
How it was run: (§1)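 Viability was scored with CellTiter-Glo luminescence and normalised to the median of DMSO-only wells as surviving fraction. Beforehand, log-phase tumour cell lines were seeded at 250–500 cells per well in 384-well plates, allowed 24 hours, and exposed continuously for five days to inhibitors at 0.5, 1, 5, 10, 50, 100, 500 and 1000 nM. Only lines whose three screens gave replicate Pearson r >0.7 and median Z' >0.3 were kept.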

TEMOZOLOMIDE = compound: Cn1nnc2c(C(N)=O)ncn2c1=O [TEMOZOLOMIDE]; assay: as above; conditions: exposure time: 5 days
How it was run: as §1

Row | Test System | surviving fraction (SORAFENIB; 0.5 nM) | surviving fraction (SORAFENIB; 5 nM) | surviving fraction (SORAFENIB; 10 nM) | surviving fraction (SORAFENIB; 50 nM) | surviving fraction (SORAFENIB; 100 nM) | surviving fraction (SORAFENIB; 500 nM) | surviving fraction (TEMOZOLOMIDE; 0.5 nM) | surviving fraction (TEMOZOLOMIDE; 1 nM) | surviving fraction (TEMOZOLOMIDE; 5 nM) | surviving fraction (TEMOZOLOMIDE; 10 nM) | surviving fraction (TEMOZOLOMIDE; 50 nM) | surviving fraction (TEMOZOLOMIDE; 100 nM) | surviving fraction (TEMOZOLOMIDE; 500 nM) | surviving fraction (TEMOZOLOMIDE; 1000 nM) | surviving fraction (SORAFENIB; 1 nM) | surviving fraction (SORAFENIB; 1000 nM)
1 | 22RV1 PROSTATE | 0.995 ± 0.029 | 0.974 ± 0.014 | 0.955 ± 0.025 | 1.09 ± 0.034 | 1.09 ± 0.064 | 1.11 ± 0.043 | 0.993 ± 0.017 | 1.09 ± 0.05 | 1.03 ± 0.029 | 1.08 ± 0.015 | 1.04 ± 0.057 | 1.13 ± 0.096 | 1.11 ± 0.048 | 1.09 ± 0.069 |  | 
2 | 93VU HEADNECK | 0.961 ± 0.081 | 1.12 ± 0.051 | 1.19 ± 0.11 | 1.22 ± 0.1 | 1.17 ± 0.07 |  | 1.02 ± 0.1 | 1.04 ± 0.015 | 1.09 ± 0.057 | 1.03 ± 0.14 | 1.11 ± 0.022 | 1.17 ± 0.12 | 1 ± 0.11 | 1.02 ± 0.081 | 0.987 ± 0.091 | 
3 | 143B BONE |  |  | 1.042 ± 0.0078 | 1.03 ± 0.06 | 1.02 ± 0.042 |  | 0.914 ± 0.096 | 1.0035 ± 0.00071 | 0.961 ± 0.047 | 1 ± 0.033 | 1.01 ± 0.013 | 1.02 ± 0.023 | 0.965 ± 0.03 | 1.04 ± 0.019 | 1.02 ± 0.018 | 0.962 ± 0.012
4 | A549 LUNG | 0.994 ± 0.032 | 1.01 ± 0.027 |  |  | 1.12 ± 0.043 | 1.12 ± 0.055 | 1.03 ± 0.0082 | 1.03 ± 0.04 | 1.03 ± 0.037 | 1.06 ± 0.013 | 1.03 ± 0.024 | 1.04 ± 0.032 | 1.04 ± 0.044 | 1.06 ± 0.047 | 0.949 ± 0.017 | 1.04 ± 0.02
5 | ASKA SYNOVIAL | 1.12 ± 0.019 | 1.18 ± 0.024 | 1.12 ± 0.028 | 1.15 ± 0.031 | 1.15 ± 0.014 | 1.01 ± 0.023 | 1.03 ± 0.078 | 1.03 ± 0.066 | 1.12 ± 0.044 | 1.22 ± 0.12 | 1.14 ± 0.082 | 1.24 ± 0.02 | 1.15 ± 0.055 | 1.2 ± 0.058 | 1.07 ± 0.063 | 0.954 ± 0.045
6 | BT20 BREAST |  | 1.07 ± 0.23 | 1.07 ± 0.23 | 1.01 ± 0.33 | 0.951 ± 0.3 |  | 1.05 ± 0.097 | 1.07 ± 0.15 | 1.04 ± 0.085 | 1.13 ± 0.11 | 1.01 ± 0.053 | 1.08 ± 0.081 | 1.03 ± 0.053 | 1.15 ± 0.052 | 1.04 ± 0.26 | 
7 | BT549 BREAST | 1.2 ± 0.1 | 1.037 ± 0.01 | 1.15 ± 0.068 | 1.07 ± 0.081 |  | 1.09 ± 0.11 | 1.1 ± 0.12 | 1.08 ± 0.085 | 1.05 ± 0.1 | 1.12 ± 0.13 | 1.09 ± 0.043 | 1.26 ± 0.1 | 1.09 ± 0.07 | 1.19 ± 0.14 | 1.11 ± 0.17 | 1.11 ± 0.16
8 | C33A CERVIX |  | 1.08 ± 0.084 | 1.07 ± 0.075 | 1.18 ± 0.17 | 1.23 ± 0.17 | 1.21 ± 0.069 | 0.944 ± 0.13 | 0.901 ± 0.11 | 1.02 ± 0.056 | 0.929 ± 0.088 | 0.944 ± 0.047 | 1.05 ± 0.061 | 0.924 ± 0.012 | 0.984 ± 0.068 | 1.1 ± 0.17 | 1.19 ± 0.13
9 | CADOES1 SOFT TISSUE | 1.02 ± 0.062 | 0.862 ± 0.035 |  | 0.972 ± 0.15 | 0.947 ± 0.1 |  | 0.965 ± 0.14 | 0.979 ± 0.071 | 0.907 ± 0.07 | 0.877 ± 0.032 | 0.956 ± 0.068 | 0.937 ± 0.04 | 0.968 ± 0.096 | 0.969 ± 0.12 |  | 0.603 ± 0.19
10 | CAL51 BREAST | 0.979 ± 0.04 | 0.9937 ± 0.0025 | 1.01 ± 0.022 | 1.12 ± 0.046 | 1.1 ± 0.05 | 1.02 ± 0.034 | 0.973 ± 0.038 | 1.05 ± 0.037 | 0.993 ± 0.02 | 1.07 ± 0.048 | 1.05 ± 0.057 | 1.06 ± 0.048 | 1.04 ± 0.032 | 1.02 ± 0.037 | 0.991 ± 0.014 | 0.977 ± 0.041
11 | CAL72 BONE | 1.06 ± 0.031 | 1.09 ± 0.026 | 1.05 ± 0.048 | 1.13 ± 0.039 | 1.121 ± 0.0063 | 1.09 ± 0.041 | 1.04 ± 0.056 | 0.996 ± 0.098 | 1.04 ± 0.083 | 1.02 ± 0.081 | 1.1 ± 0.05 | 1.09 ± 0.087 | 1.076 ± 0.0011 | 1.07 ± 0.094 |  | 1.08 ± 0.042
12 | CAL120 BREAST | 0.959 ± 0.026 | 0.931 ± 0.025 |  | 1.02 ± 0.014 | 1.01 ± 0.038 | 0.973 ± 0.023 | 0.948 ± 0.059 | 0.963 ± 0.033 | 0.99 ± 0.048 | 0.96 ± 0.075 | 0.976 ± 0.075 | 0.988 ± 0.016 | 0.988 ± 0.053 | 0.989 ± 0.025 | 0.9315 ± 0.0074 | 0.942 ± 0.032
13 | CASKI CERVIX | 0.895 ± 0.04 | 0.983 ± 0.044 | 0.969 ± 0.019 | 1.13 ± 0.077 | 1.13 ± 0.075 | 1.05 ± 0.019 | 0.888 ± 0.013 | 0.88 ± 0.049 | 0.965 ± 0.044 | 1.01 ± 0.12 | 1 ± 0.023 | 1.04 ± 0.05 | 0.929 ± 0.072 | 1 ± 0.074 | 0.94 ± 0.054 | 0.865 ± 0.045
14 | CHLA90 AUTONOMIC GANGLIA | 0.992 ± 0.05 |  | 0.996 ± 0.037 | 1.13 ± 0.037 | 1.27 ± 0.062 | 1.38 ± 0.1 | 0.928 ± 0.039 | 0.975 ± 0.047 | 0.941 ± 0.053 | 0.96 ± 0.023 | 0.963 ± 0.068 | 1.03 ± 0.055 | 1.02 ± 0.087 | 1.03 ± 0.098 | 1.04 ± 0.039 | 1.5 ± 0.12
15 | CME SYNOVIAL | 1.23 ± 0.11 | 1.28 ± 0.072 | 1.38 ± 0.075 | 1.28 ± 0.058 | 1.4 ± 0.12 | 1.27 ± 0.073 | 1.31 ± 0.12 | 1.21 ± 0.12 | 1.24 ± 0.033 | 1.33 ± 0.18 | 1.34 ± 0.12 | 1.46 ± 0.064 | 1.34 ± 0.027 | 1.39 ± 0.065 | 1.2 ± 0.07 | 1.15 ± 0.025
16 | COLO320DM LARGE INTESTINE | 1.13 ± 0.042 | 1.15 ± 0.029 | 1.07 ± 0.075 | 1.21 ± 0.14 | 1.11 ± 0.013 | 1.18 ± 0.2 | 1.21 ± 0.13 | 1.1 ± 0.036 | 1.13 ± 0.055 | 1.17 ± 0.12 | 1.1 ± 0.035 | 1.142 ± 0.011 | 1.15 ± 0.014 | 1.06 ± 0.047 | 1.06 ± 0.04 | 0.968 ± 0.074
17 | DU4475 BREAST | 1.07 ± 0.35 | 0.927 ± 0.29 | 0.999 ± 0.18 | 0.819 ± 0.25 | 0.939 ± 0.46 | 0.906 ± 0.31 | 0.877 ± 0.091 | 0.998 ± 0.053 | 0.973 ± 0.19 | 0.878 ± 0.093 | 0.851 ± 0.08 | 1.01 ± 0.2 | 0.972 ± 0.24 | 0.989 ± 0.067 | 1.05 ± 0.2 | 0.769 ± 0.32
18 | H23 LUNG | 1.01 ± 0.03 | 1.06 ± 0.061 | 1.06 ± 0.033 | 1.32 ± 0.095 | 1.33 ± 0.031 | 1.38 ± 0.11 | 0.987 ± 0.04 | 1.01 ± 0.031 | 1.01 ± 0.053 | 1.06 ± 0.044 | 0.997 ± 0.025 | 1.01 ± 0.022 | 0.966 ± 0.066 | 1.02 ± 0.051 |  | 1.27 ± 0.073
19 | HCC78 LUNG | 0.864 ± 0.17 |  | 0.877 ± 0.085 | 1.02 ± 0.053 |  | 0.509 ± 0.068 | 0.804 ± 0.046 | 0.791 ± 0.14 | 0.941 ± 0.062 | 1.02 ± 0.069 | 0.984 ± 0.11 | 0.916 ± 0.14 | 0.907 ± 0.058 | 0.785 ± 0.18 | 0.826 ± 0.023 | 0.435 ± 0.098
20 | HCC202 BREAST | 1.23 ± 0.35 | 1.11 ± 0.18 | 1.02 ± 0.031 | 0.987 ± 0.055 |  | 0.897 ± 0.13 | 1.08 ± 0.35 | 1 ± 0.13 | 1.07 ± 0.32 | 0.9 ± 0.071 | 1.01 ± 0.17 | 1.29 ± 0.14 | 0.975 ± 0.035 | 1.254 ± 0.011 |  | 0.685 ± 0.15
21 | HCC1395 BREAST | 1.11 ± 0.057 | 1.27 ± 0.049 | 1.16 ± 0.17 | 1.26 ± 0.034 | 1.24 ± 0.15 | 1.18 ± 0.21 | 1.03 ± 0.034 | 1.1 ± 0.081 | 1.1 ± 0.11 | 1.02 ± 0.078 | 1.04 ± 0.044 | 1.01 ± 0.14 | 0.922 ± 0.14 | 1.06 ± 0.03 |  | 1.12 ± 0.048
22 | HCC1806 BREAST | 0.985 ± 0.032 | 1.03 ± 0.059 | 0.771 ± 0.66 | 1.14 ± 0.099 | 1.05 ± 0.14 | 1 ± 0.11 | 1 ± 0.043 | 1.083 ± 0.0076 | 1.19 ± 0.052 | 1.07 ± 0.081 | 1.12 ± 0.086 | 1.09 ± 0.034 | 1.05 ± 0.16 | 1.12 ± 0.11 | 0.78 ± 0.45 | 0.888 ± 0.081
